Literature values as cited in article PMC3346673 (Toxicological and environmental chemistry, 2012).

Key:
[1] = temporarily ref Risher & Amier, 2005; cited from earlier work
[2] = administered by sc injection; cited from earlier work

| SMILES | reduction of blood mercury levels [1] | predicted LD50 [2] |
| --- | --- | --- |
| O=C(O)C(S)C(S)C(=O)O (stereo not drawn) [DMSA, dimercaptosuccinic acid] | about 20% | – |
| O=S(=O)(O)CC(S)CS (stereo not drawn) [DMPS, dimercaptopropanesulfonate] | about 20% | – |
| [Cl][Hg][Cl] [HgCl2, mercury chloride] | – | 14 mg HgCl2 kg^−1 |
